Experimental data: ChEMBL document CHEMBL1268867, “ATPases as drug targets: insights from heat shock proteins 70 and 90” (J Med Chem, 2010)

Key:
[1] = Binding affinity to Hsp70 nucleotide binding domain
[2] = target: Heat shock cognate 71 kDa protein (Bos taurus, UniProt P19120); assay: Binding affinity to bovine Hsc70 by filter binding assay
[3] = target: Heat shock cognate 71 kDa protein (Homo sapiens, UniProt P11142); assay: Binding affinity to human Hsc70 by isothermal calorimetry assay
Heat shock cognate 71 kDa protein (Homo sapiens, UniProt P11142), sequence (P11142 whole entry): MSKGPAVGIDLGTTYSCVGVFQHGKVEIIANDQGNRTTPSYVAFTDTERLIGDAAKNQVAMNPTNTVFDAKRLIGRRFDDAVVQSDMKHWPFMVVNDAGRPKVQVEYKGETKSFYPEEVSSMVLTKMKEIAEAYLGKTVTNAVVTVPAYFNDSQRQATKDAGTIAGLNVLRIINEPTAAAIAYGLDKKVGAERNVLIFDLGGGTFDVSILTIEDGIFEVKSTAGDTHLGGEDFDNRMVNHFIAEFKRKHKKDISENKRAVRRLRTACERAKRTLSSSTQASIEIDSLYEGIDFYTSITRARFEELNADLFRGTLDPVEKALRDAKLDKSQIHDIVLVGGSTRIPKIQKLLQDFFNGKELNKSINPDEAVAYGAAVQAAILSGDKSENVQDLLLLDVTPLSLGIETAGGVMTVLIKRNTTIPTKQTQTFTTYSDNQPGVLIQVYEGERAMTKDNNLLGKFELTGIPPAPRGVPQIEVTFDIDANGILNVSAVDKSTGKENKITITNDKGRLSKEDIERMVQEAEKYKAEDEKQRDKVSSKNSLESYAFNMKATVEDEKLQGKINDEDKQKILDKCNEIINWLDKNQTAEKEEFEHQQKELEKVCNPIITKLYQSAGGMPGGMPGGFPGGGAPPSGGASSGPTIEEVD

Heat shock cognate 71 kDa protein (Bos taurus, UniProt P19120), sequence (P19120 whole entry): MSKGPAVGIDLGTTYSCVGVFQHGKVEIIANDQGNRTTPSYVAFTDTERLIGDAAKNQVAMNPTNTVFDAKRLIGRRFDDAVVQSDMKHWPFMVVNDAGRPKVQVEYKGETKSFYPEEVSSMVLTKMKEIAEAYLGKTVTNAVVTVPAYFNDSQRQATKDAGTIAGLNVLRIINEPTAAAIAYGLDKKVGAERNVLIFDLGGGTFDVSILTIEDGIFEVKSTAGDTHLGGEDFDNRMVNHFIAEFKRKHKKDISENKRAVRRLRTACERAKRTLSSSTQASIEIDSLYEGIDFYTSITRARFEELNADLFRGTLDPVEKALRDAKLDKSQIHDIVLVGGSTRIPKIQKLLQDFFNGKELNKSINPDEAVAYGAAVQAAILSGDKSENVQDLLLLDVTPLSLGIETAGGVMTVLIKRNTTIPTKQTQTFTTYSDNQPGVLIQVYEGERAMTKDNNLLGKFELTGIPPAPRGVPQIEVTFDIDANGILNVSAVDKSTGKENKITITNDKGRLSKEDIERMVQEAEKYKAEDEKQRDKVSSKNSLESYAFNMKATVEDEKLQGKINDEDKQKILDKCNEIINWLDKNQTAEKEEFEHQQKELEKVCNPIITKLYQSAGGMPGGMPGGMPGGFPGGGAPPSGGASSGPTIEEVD

| Kd [1] [nM] | Kd [2] [nM] | Kd [3] [nM] | SMILES |
| --- | --- | --- | --- |
| 300 | – | – | N#Cc1ccc(COC[C@H]2O[C@@H](n3c(NCc4ccc(Cl)c(Cl)c4)nc4c(N)ncnc43)[C@H](O)[C@@H]2O)cc1 |
| – | 110 | 260 | Nc1ncnc2c1ncn2[C@@H]1O[C@H](COP(=O)(O)OP(=O)(O)O)[C@@H](O)[C@H]1O [ADENOSINE DIPHOSPHATE] |
